Data from patent publication US12139508B2, “Steroid derivative regulators, method for preparing the same, and uses thereof” (JIANGSU HANSOH PHARMACEUTICAL GROUP CO., LTD., priority 2018, dated 2024).
Like-named read-outs stand apart in the source and are kept apart here.

Experiments:
GABA-A receptor = assay: 35S-TBPS binding assay (GABAA receptor binding ability test); set-up: species or system Sprague-Dawley rat; settings: rat cerebral cortex cell membrane, 5 μM GABA, 2 nM 35S-TBPS; read-out: 35S-TBPS bindng test: IC50 on inhibiting the TBPS binding activity
Summary of the method: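 Rat (male Sprague-Dawley) cortical membranes in PBS were preincubated 5 min at 25° C with compound (from 1 μM, 3-fold, 8 points, 1% DMSO), then 5 μM GABA 5 min, then 2 nM ^35S-TBPS for 20 h at 4° C. Filter-bound counts gave % inhibition against DMSO and 10 μM P026-2 controls; IC50 by 4-parameter fit.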

[1] = Pharmacokinetic assay in Balb/c mice (plasma and brain tissue); format: in vivo; settings: mouse, po, 5 mg/kg p.o., male Balb/c mice; for AUC(0-t): read-out: Area under curve AUC0-t; for AUC(0-inf): read-out: Area under curve AUC0-∞; for half-life: read-out: Half-life t1/2 (converted); for MRT: read-out: Mean residence time MRT; for Tmax: read-out: Peak time tmax; for Cmax: read-out: Plasma concentration Cmax
Procedure: Balb/c mice were used as test animals. The pharmacokinetic behavior in mice (plasma and brain tissue) of the compounds of Examples 2, 3, 5, 6, 9, 13, 59, 60, 61, 63, 71-74, 81, 103, 130, 134, 135, 137, 138, 140, 141, 143, 145 and 146 orally administered at a dose of 5 mg/kg was studied.
Each group had 24 male Balb/c mice. After an overnight fast, Balb/c mice were administered p.o. with the test compound at an administration dose of 5 mg/kg and an administration volume of 10 mL/kg.
0.2 ml of blood was taken from the heart before administration and at 0, 0.5, 1, 2, 4, 6, 8 and 24 hours after administration. The samples were stored in EDTA-K2 tubes, and centrifuged for 6 minutes at 4° C., 6000 rpm to separate the plasma. The plasma samples were stored at −80° C. The mice were sacrificed with CO2, and the whole brain tissue was taken out, weighed, placed in a 2 mL centrifuge tube and stored at −80° C.
1) 160 μL of acetonitrile was added to 40 μL of the plasma sample for precipitation, and then the mixture was centrifuged for 5-20 minutes at 3500×g.
2) 90 μL of acetonitrile containing the internal standard (100 ng/mL) was added to 30 μL of the plasma and brain homogenate samples for precipitation, and then the mixture was centrifuged for 8 minutes at 13000 rpm.
3) 70 μL of the treated supernatant was taken and added to 70 μL of water, and mixed by vortex for 10 minutes. 20 μL of the mixture was taken to analyze the concentration of the test compound by LC/MS/MS. LC/MS/MS analysis instrument: AB Sciex API 4000 Qtrap.
• Liquid chromatography condition: Shimadzu LC-20AD pump. • Chromatographic column: Agilent ZORBAX™ XDB-C18 (50×2.1 mm, 3.5 μm) (note: Aglient ZORBAX™ is a kind of column used in the reverse HPLC); • Mobile phase: Eluent A was 0.10% formic acid in water, and Eluent B was acetonitrile. • Flow rate: 0.4 mL/min • Elution time: 0-4.0 minutes, the eluent is as follows:
The main parameters of pharmacokinetics were calculated by WinNonlin 6.1.

Row | SMILES | IC50 (GABA-A receptor) | AUC(0-t) ([1]; brain tissue) | AUC(0-inf) ([1]; brain tissue) | half-life ([1]; brain tissue) | MRT ([1]; brain tissue) | Tmax ([1]; brain tissue) | Cmax ([1]; brain tissue) | AUC(0-t) ([1]; plasma) | AUC(0-inf) ([1]; plasma) | half-life ([1]; plasma) | MRT ([1]; plasma) | Tmax ([1]; plasma) | Cmax ([1]; plasma)
1 | C[C@@]1(O)CC[C@H]2[C@H](CC[C@@H]3[C@@H]2CC[C@@]2(C)[C@H]3[C@@H]3C[C@@H]3[C@@H]2C(=O)Cn2ccc(C(F)(F)F)n2)C1 [Example 6, 1-((2R,4aS,4bR,6aS,7S,7aS,8aR,8bR,8cR,10aR)-2-Hydroxy-2,6a-dimethyloctadecahydrocyclopropa[4,5]cyclopenta[1,2-a]phenanthren-7-yl)-2-(3-(trifluoromethyl)-1H-pyrazol-1-yl)ethan-1-one] | 3.1 nM | 917 ng·h/mL | 964 ng·h/mL | 1.9 h | 2.4 h | 0.5 h | 464 ng/mL | 409 ng·h/mL | 484 ng·h/mL | 3.19 h | 4.03 h | 0.5 h | 219 ng/mL
2 | C[C@@]1(O)CC[C@H]2[C@H](CC[C@@H]3[C@@H]2CC[C@@]2(C)[C@H]3[C@@H]3C[C@@H]3[C@@H]2C(=O)Cn2ncnn2)C1 [Example 9, 1-((2R,4aS,4bR,6aS,7S,7aS,8aR,8bR,8cR,10aR)-2-Hydroxy-2,6a-dimethyloctadecahydrocyclopropa[4,5]cyclopenta[1,2-a]phenanthren-7-yl)-2-(2H-tetrazol-2-yl)ethan-1-one] | 21.3 nM | 677 ng·h/mL | 680 ng·h/mL | 0.5 h | 0.9 h | 0.5 h | 605 ng/mL | 775 ng·h/mL | 778 ng·h/mL | 0.9 h | 1.1 h | 0.5 h | 664 ng/mL
3 | C[C@@H]1C[C@H](C(=O)Cn2cc(C(F)(F)F)cn2)[C@@]2(C)CC[C@H]3[C@@H](CC[C@@H]4C[C@](C)(O)CC[C@@H]43)[C@H]12 [Example 59, 1-((3R,5R,8R,9R,10S,13S,14S,15R,17S)-3-Hydroxy-3,13,15-trimethylhexadecahydro-1H-cyclopenta[a]phenanthren-17-yl)-2-(4-(trifluoromethyl)-1H-pyrazol-1-yl)ethan-1-one] | 6.2 nM | 2640 ng·h/mL | 2680 ng·h/mL | 3.18 h | 4.81 h | 1 h | 678 ng/mL | 1300 ng·h/mL | 1320 ng·h/mL | 2.99 h | 4.15 h | 0.5 h | 554 ng/mL
4 | C[C@@H]1C[C@H](C(=O)Cn2ncnn2)[C@@]2(C)CC[C@H]3[C@@H](CC[C@@H]4C[C@](C)(O)CC[C@@H]43)[C@H]12 [Example 63, 1-((3R,5R,8R,9R,10S,13S,14S,15R,17S)-3-Hydroxy-3,13,15-trimethylhexadecahydro-1H-cyclopenta[a]phenanthren-17-yl)-2-(2H-tetrazol-2-yl)ethan-1-one] | 6.1 nM | 603 ng·h/mL | 618 ng·h/mL | 0.72 h | 1.21 h | 0.5 h | 486 ng/mL | 599 ng·h/mL | 604 ng·h/mL | 2.58 h | 2.42 h | 0.5 h | 335 ng/mL
5 | C[C@@]1(O)CC[C@H]2[C@H](CC[C@@H]3[C@@H]2CC[C@@]2(C)[C@H]3[C@@H]3C[C@@H]3[C@@H]2C(=O)COc2cnc(C(F)(F)F)nc2)C1 [Example 130, 1-((2R,4aS,4bR,6aS,7S,7aS,8aR,8bR,8cR,10aR)-2-Hydroxy-2,6a-dimethyloctadecahydrocyclopropa[4,5]cyclopenta[1,2-a]phenanthren-7-yl)-2-((2-(trifluoromethyl)pyrimidin-5-yl)oxy)ethan-1-one] | 4.2 nM | 2310 ng·h/mL | 2630 ng·h/mL | 2.49 h | 3.88 h | 0.5 h | 563 ng/mL | 1390 ng·h/mL | 1560 ng·h/mL | 2.21 h | 3.83 h | 0.5 h | 307 ng/mL
6 | C[C@@H]1C[C@H](C(=O)Cn2cc(C#N)c(Cl)n2)[C@@]2(C)CC[C@H]3[C@@H](CC[C@@H]4C[C@](C)(O)CC[C@@H]43)[C@H]12 [Example 134, 3-Chloro-1-(2-((3R,5R,8R,9R,10S,13S,14S,15R,17S)-3-hydroxy-3,13,15-trimethylhexadecahydro-1H-cyclopenta[a]phenanthren-17-yl)-2-oxoethyl)-1H-pyrazole-4-carbonitrile] | 6.7 nM | 3210 ng·h/mL | 3500 ng·h/mL | 1.59 h | 3.22 h | 1 h | 892 ng/mL | 4630 ng·h/mL | 5130 ng·h/mL | 1.78 h | 3.31 h | 0.5 h | 1750 ng/mL
7 | C[C@@]1(O)CC[C@H]2[C@H](CC[C@@H]3[C@@H]2CC[C@@]2(C)[C@H]3[C@H](C3CC3)C[C@@H]2C(=O)Cn2cc(C#N)c(Cl)n2)C1 [Example 147, 3-Chloro-1-(2-((3R,5R,8R,9R,10S,13S,14S,15S,17S)-15-cyclopropyl-3-hydroxy-3,13-dimethylhexadecahydro-1H-cyclopenta[a]phenanthren-17-yl)-2-oxoethyl)-1H-pyrazole-4-carbonitrile] | 24.4 nM | – | – | – | – | – | – | – | – | – | – | – | –
8 | CC[C@@H]1C[C@H](C(=O)Cn2ncnn2)[C@@]2(C)CC[C@H]3[C@@H](CC[C@@H]4C[C@](C)(O)CC[C@@H]43)[C@H]12 [Example 149, 1-((3R,5R,8R,9R,10S,13S,14S,15R,17S)-15-Ethyl-3-hydroxy-3,13-dimethylhexadecahydro-1H-cyclopenta[a]phenanthren-17-yl)-2-(2H-tetrazol-2-yl)ethan-1-one] | 25.6 nM | – | – | – | – | – | – | – | – | – | – | – | –
9 | C[C@@H]1C[C@H](C(=O)COc2cnc(C(F)(F)F)nc2)[C@@]2(C)CC[C@H]3[C@@H](CC[C@@H]4C[C@](C)(O)CC[C@@H]43)[C@H]12 [Example 150, 1-((3R,5R,8R,9R,10S,13S,14S,15R,17S)-3-Hydroxy-3,13,15-trimethylhexadecahydro-1H-cyclopenta[a]phenanthren-17-yl)-2-((2-(trifluoromethyl)pyrimidin-5-yl)oxy)ethan-1-one] | 8.8 nM | – | – | – | – | – | – | – | – | – | – | – | –
10 | C[C@@]1(O)CC[C@H]2[C@H](CC[C@@H]3[C@@H]2CC[C@@]2(C)[C@H]3[C@H](C3CC3)C[C@@H]2C(=O)COc2cnc(C(F)(F)F)nc2)C1 [Example 151, 1-((3R,5R,8R,9R,10S,13S,14S,15S,17S)-15-Cyclopropyl-3-hydroxy-3,13-dimethylhexadecahydro-1H-cyclopenta[a]phenanthren-17-yl)-2-((2-(trifluoromethyl)pyrimidin-5-yl)oxy)ethan-1-one] | 26.2 nM | – | – | – | – | – | – | – | – | – | – | – | –
11 | C[C@@]1(O)CC[C@H]2[C@H](CC[C@@H]3[C@@H]2CC[C@]2(C)[C@@H](C(=O)COCC4(C#N)CC4)CC[C@@H]32)C1 [Example 166, 1-((2-((3R,5R,8R,9R,10S,13S,14S,17S)-3-Hydroxy-3,13-dimethylhexadecahydro-1H-cyclopenta[a]phenanthren-17-yl)-2-oxoethoxy)methyl)cyclopropane-1-carbonitrile] | 38.4 nM | – | – | – | – | – | – | – | – | – | – | – | –
